Laboratory results reported in patent publication US8546401B2, “5,6-disubstituted oxindole-derivatives and use thereof for treating vasopressin-dependent diseases” (AbbVie Deutschland GmbH & Co. KG, priority 2007, dated 2013).

What was measured:
[1] = target: T1, human vasopressin V1a receptor (Homo sapiens, UniProt P37288); experiment: Vasopressin V1a receptor binding assay; conditions: selectivity quotient, human receptors
T1 construct: expressed in transfected cells; host or cells: CHO-K1 (cell line hV1a_5_CHO), membrane preparation
T1 sequence (P37288 whole entry): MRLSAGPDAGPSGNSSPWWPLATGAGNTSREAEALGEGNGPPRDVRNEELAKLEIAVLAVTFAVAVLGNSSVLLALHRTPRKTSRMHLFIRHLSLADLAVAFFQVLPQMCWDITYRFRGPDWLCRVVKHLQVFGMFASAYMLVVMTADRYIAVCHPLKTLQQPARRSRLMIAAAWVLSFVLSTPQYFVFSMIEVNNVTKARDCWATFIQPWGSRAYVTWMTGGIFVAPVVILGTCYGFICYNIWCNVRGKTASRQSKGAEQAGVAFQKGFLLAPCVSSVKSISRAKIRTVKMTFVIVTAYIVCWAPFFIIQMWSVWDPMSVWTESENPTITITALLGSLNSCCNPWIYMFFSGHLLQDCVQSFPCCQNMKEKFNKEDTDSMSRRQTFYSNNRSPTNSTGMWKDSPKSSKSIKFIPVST
Method in brief: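 Membranes from CHO-K1 cells stably expressing the receptor (hV1a_5_CHO; 20 μg/ml protein) were incubated 60 min at room temperature with 0.04 nM ^125I-AVP and increasing test compound in 50 mM Tris, 10 mM MgCl2, 0.1% BSA, pH 7.4. Nonspecific binding was defined with 1 μM AVP and read by filtration and scintillation. Ki came from nonlinear regression using Kd 1.33 nM.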

human oxytocin receptors = target: T2, human oxytocin receptors (Homo sapiens, UniProt P30559); experiment: Oxytocin receptor binding assay; conditions: selectivity quotient
T2 construct: expressed in transfected cells; host or cells: HEK-293, transient expression; lysed and homogenized cells
T2 sequence (P30559 1-389): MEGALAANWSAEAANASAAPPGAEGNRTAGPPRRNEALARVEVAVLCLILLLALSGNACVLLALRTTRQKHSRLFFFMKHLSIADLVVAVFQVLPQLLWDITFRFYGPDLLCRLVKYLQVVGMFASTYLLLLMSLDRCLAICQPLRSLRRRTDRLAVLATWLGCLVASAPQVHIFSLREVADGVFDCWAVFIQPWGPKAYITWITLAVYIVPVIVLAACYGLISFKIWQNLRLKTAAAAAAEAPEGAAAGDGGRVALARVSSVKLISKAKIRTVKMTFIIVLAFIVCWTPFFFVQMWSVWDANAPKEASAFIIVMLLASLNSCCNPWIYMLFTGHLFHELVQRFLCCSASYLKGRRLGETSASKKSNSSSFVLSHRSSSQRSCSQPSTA
Method in brief: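 Membranes from HEK-293 cells transiently expressing human oxytocin receptor, incubated with 3-4 nM ^3H-oxytocin in 50 mM Tris, 10 mM MgCl2, 0.1% BSA, pH 7.4; nonspecific binding with 10^−6 M oxytocin. Filtration and scintillation counting; Ki by nonlinear regression using Kd 7.6 nM.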

[2] = target: T3, human vasopressin V1b receptor (Homo sapiens, UniProt P47901); experiment: Vasopressin V1b receptor binding assay; conditions: CHO-K1 membranes, 3H-AVP displacement
T3 construct: expressed in transfected cells; host or cells: CHO-K1 (cell line hV1b_3H2_CHO), membrane preparation
T3 sequence (P47901 1-424): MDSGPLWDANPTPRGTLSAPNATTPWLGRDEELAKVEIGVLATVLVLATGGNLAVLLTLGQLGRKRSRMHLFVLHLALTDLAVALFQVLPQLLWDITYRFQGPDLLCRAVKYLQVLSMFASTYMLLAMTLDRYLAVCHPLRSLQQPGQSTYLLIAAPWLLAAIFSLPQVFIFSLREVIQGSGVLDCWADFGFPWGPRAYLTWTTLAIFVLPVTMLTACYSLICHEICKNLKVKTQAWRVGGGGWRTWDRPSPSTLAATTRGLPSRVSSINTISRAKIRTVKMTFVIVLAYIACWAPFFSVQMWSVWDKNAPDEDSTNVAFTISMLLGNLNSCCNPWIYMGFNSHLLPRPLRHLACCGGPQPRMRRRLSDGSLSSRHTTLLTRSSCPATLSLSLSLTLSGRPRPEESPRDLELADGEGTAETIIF
Method in brief: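 Membranes (50 μg/ml protein) from CHO-K1 cells stably expressing human V1b were incubated with 1.5 nM ^3H-AVP in 50 mM Tris, 10 mM MgCl2, 0.1% BSA, pH 7.4, for 60 min at room temperature, 2% DMSO final. Bound ligand measured after filtration; Ki derived by nonlinear regression using Kd 0.4 nM.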

| Structure (SMILES) | Ki(h − V1a)/Ki(h − V1b)* [1] | Ki(h − OT)/Ki(h − V1b)* (human oxytocin receptors) | Ki [2] |
| --- | --- | --- | --- |
| CCOc1ncccc1C1(NC(=O)N2CCC(N3CCN(C)CC3)CC2)C(=O)N(S(=O)(=O)c2ccc(OC)cc2OC)c2cc(F)c(F)cc21 (stereo not drawn) [Example 35, 4-(4-Methylpiperazin-1-yl)piperidine-1-[1-(2,4-dimethoxyphenylsulfonyl)-3-(2-ethoxy-pyridin-3-yl)-5,6-difluoro-2-oxo-2,3-dihydro-1H-indol-3-yl]carboxamide] | + (10-<25) | + (10-<25) | 1 to 10 nM |
| CCOc1ncccc1C1(OC(=O)N2CCN(C3CCN(C)CC3)CC2)C(=O)N(S(=O)(=O)c2ccc(OC)cc2OC)c2cc(F)c(C#N)cc21 (stereo not drawn) [Example 38, 5-Cyano-1-(2,4-dimethoxybenzenesulfonyl)-3-(2-ethoxypyridin-3-yl)-6-fluoro-2-oxo-2,3-dihydro-1H-indol-3-yl 4-(1-methylpiperidin-4-yl)piperazine-1-carboxylate] | +++ (>75) | +++ (>75) | < 1 nM |
| CCOc1ncccc1C1(OC(=O)N2CCN(C3CCN(C)CC3)CC2)C(=O)N(S(=O)(=O)c2ccc(OC)cc2)c2cc(F)c(C#N)cc21 (stereo not drawn) [Example 39, 5-Cyano-3-(2-ethoxypyridin-3-yl)-6-fluoro-1-(4-methoxyphenylsulfonyl)-2-oxo-2,3-dihydro-1H-indol-3-yl 4-(1-methylpiperidin-4-yl)piperazine-1-carboxylate] | ++ (25-75) | +++ (>75) | < 1 nM |
| CCOc1ncccc1C1(OC(=O)N2CCN(C3CCN(C)CC3)CC2)C(=O)N(S(=O)(=O)c2ccccc2)c2cc(F)c(C#N)cc21 (stereo not drawn) [Example 40, 1-Phenylsulfonyl-5-cyano-3-(2-ethoxypyridin-3-yl)-6-fluoro-2-oxo-2,3-dihydro-1H-indol-3-yl 4-(1-methylpiperidin-4-yl)piperazine-1-carboxylate] | + (10-<25) | +++ (>75) | 1 to 10 nM |
| CCOc1ncccc1C1(OC(=O)N2CCN(C3CCN(C)CC3)CC2)C(=O)N(S(=O)(=O)c2ccc(OC)cc2OC)c2cc(F)c(Cl)cc21 (stereo not drawn) [Example 41, 5-Chloro-1-(2,4-dimethoxyphenylsulfonyl)-3-(2-ethoxypyridin-3-yl)-6-fluoro-2-oxo-2,3-dihydro-1H-indol-3-yl 4-(1-methylpiperidin-4-yl)piperazine-1-carboxylate] | + (10-<25) | + (10-<25) | < 1 nM |
| CCOc1ncccc1C1(OC(=O)N2CCN(C3CCN(C)CC3)CC2)C(=O)N(S(=O)(=O)c2ccc(OC)cc2)c2cc(F)c(Cl)cc21 (stereo not drawn) [Example 42, 5-Chloro-3-(2-ethoxypyridin-3-yl)-6-fluoro-1-(4-methoxyphenylsulfonyl)-2-oxo-2,3-dihydro-1H-indol-3-yl 4-(1-methylpiperidin-4-yl)piperazine-1-carboxylate] | + (10-<25) | + (10-<25) | < 1 nM |
| CCOc1ncccc1C1(OC(=O)N2CCN(C3CCN(C)CC3)CC2)C(=O)N(S(=O)(=O)c2ccccc2OC)c2cc(F)c(Cl)cc21 (stereo not drawn) [Example 43, 5-Chloro-3-(2-ethoxypyridin-3-yl)-6-fluoro-1-(2-methoxyphenylsulfonyl)-2-oxo-2,3-dihydro-1H-indol-3-yl 4-(1-methylpiperidin-4-yl)piperazine-1-carboxylate] | ++ (25-75) | +++ (>75) | < 1 nM |
| CCOc1ncccc1C1(OC(=O)N2CCN(C3CCN(C)CC3)CC2)C(=O)N(S(=O)(=O)c2ccccc2)c2cc(F)c(Cl)cc21 (stereo not drawn) [Example 45, 1-Phenylsulfonyl-5-chloro-3-(2-ethoxypyridin-3-yl)-6-fluoro-2-oxo-2,3-dihydro-1H-indol-3-yl 4-(1-methylpiperidin-4-yl)piperazine-1-carboxylate] | + (10-<25) | +++ (>75) | 1 to 10 nM |
